Experimental data as given in patent publication EP4782453A1 (Beyang Therapeutics Co., Ltd., priority 2023, dated 2025).
pEC50, pIC50: −log10 of the molar value.

How the values were obtained:
Format in all cases: cell-based
[1] = test system: MV-4-11 (carrying MLL-AF4); assay: Inhibition of proliferation of human tumor cells (Alamar Blue, 7 days), MV-4-11; details: Homo sapiens, MV4-11, 168 h, MV-4-11 cells (carrying MLL-AF4), method calls the value GI50
Outline: (§1)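 GI50 values reflect growth inhibition over 7 days, read by Alamar Blue. Seeding density was 4,000 cells/well except KG-1a (3,000 cells/well); each line grew in its own FBS-containing medium at 37°C.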

[2] = test system: MOLM-13 (carrying MLL-AF9); assay: Inhibition of proliferation of human tumor cells (Alamar Blue, 7 days), MOLM-13; details: Homo sapiens, 168 h, MOLM-13 cells (carrying MLL-AF9), method calls the value GI50
Outline: as §1

[3] = test system: KG-1a (wild-type MLL); assay: Inhibition of proliferation of human tumor cells (Alamar Blue, 7 days), KG-1a control cell line; details: 168 h, KG-1a cells (wild-type MLL, control cell line), method calls the value GI50
Outline: as §1

[4] = test system: MEIS1 gene expression; assay: Inhibition of MEIS1 gene expression in human tumor cells (qRT-PCR), MV-4-11; details: MV4-11, MV-4-11 (carrying MLL-AF4), 48 hours of incubation, relative MEIS1 gene expression vs GAPDH, read-out: MV-4-11 MEISI EC50
Outline: (§2)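 MV-4-11 (MLL-AF4; IMDM, 10% FBS), MOLM-13 (MLL-AF9) and OCI-AML3 (NPM1c) (RPMI-1640, 20% FBS) seeded at 100,000 cells/well and treated 48 h with serially diluted compound. MEIS1 mRNA measured by one-step probe qRT-PCR from total RNA, triplicates, GAPDH primer/probe included; EC50 for inhibition of relative MEIS1 expression.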

[5] = test system: MEIS1 gene expression; assay: Inhibition of MEIS1 gene expression in human tumor cells (qRT-PCR), MOLM-13; details: MOLM-13 (carrying MLL-AF9), 48 hours of incubation, relative MEIS1 gene expression vs GAPDH
Outline: as §2

[6] = test system: MEIS1 gene expression; assay: Inhibition of MEIS1 gene expression in human tumor cells (qRT-PCR), OCI-AML3; details: OCI-AML-3, OCI-AML3 (carrying NPM1c), 48 hours of incubation, relative MEIS1 gene expression vs GAPDH
Text: Experimental Example 3: Evaluation of Inhibitory Activity of Compounds Against MEISI Gene Expression in Human Tumor Cells
The effect of test samples on MEIS1 gene expression in vitro cultured human leukemia cells MV-4-11 (carrying MLL-AF4), MOLM-13 (carrying MLL-AF9), and OCI-AML3 (carrying NPM1c) was studied.
• Human acute lymphoblastic leukemia cells MV-4-11, purchased from American Type Culture Collection, Catalog Number: CRL-9591; • Human acute myeloid leukemia cells MOLM-13, purchased from COBIOER BIOSCIENCES CO., LTD, Catalog Number: CBP60678; • Human acute myeloid leukemia cells OCI-AML3, purchased from COBIOER BIOSCIENCES CO., LTD, Catalog Number: CBP60817; • MEIS1 Primer/Probe, purchased from IDT, Catalog Number: 40831613; and • GAPDH Primer/Probe, purchased from IDT, Catalog Number: 22214836.
MV-4-11 cells were cultured in an IMDM medium containing 10% fetal bovine serum, or MOLM-13 and OCI-AML3 cells were cultured in an RPMI-1640 medium containing 20% fetal bovine serum, each supplemented with 100 U·mL^-1 penicillin and 100 µg·mL^-1 streptomycin. These cells were cultured at 37°C with 5% CO2. The suspensions of individual cell lines were prepared in their respective media and seeded into 48-well plates at a density of 100,000 cells/well. On the day of the experiment, a compound stock solution was diluted in a 6-fold gradient using DMSO. Each gradient-diluted stock solution was then further diluted 250-fold with a complete medium to prepare a series of working solutions at different concentrations. Next, 250 µL of working solution (containing the complete medium with a 2-fold serial concentration of the test compound or a positive control compound, or containing a control complete medium) was added to each well. After 48 hours of incubation, cells from the 48-well plate were collected into 1 mL centrifuge tubes, centrifuged at 1000 rpm for 5 minutes, and the complete medium was removed. Cells were washed twice with 1 mL PBS and centrifuged to remove PBS. Total RNA was extracted using the RNeasy Mini Kit (250) (QIAGEN, 74106). The threshold cycle (Ct) value for gene expression was determined using the HiScript II U+ One Step qRT-PCR Probe Kit (Vazyme) (Vazyme, Q223-01), with 3 replicates per sample. The prepared reaction mixture was placed in an ABI 7500 real-time PCR instrument, and the reaction proceeded following the procedures below. [formula]
Next, for the relative MEIS1 gene expression, the concentration (EC50) that inhibits 50% of relative MEIS1 gene expression was calculated using GraphPad Prism 8 software.

Compound `Cc1nc(F)c2c(-c3ccc(F)cc3C(=O)N3CCOC[C@H]3C)cc(C3CN([C@H](CN4CCN(C)CC4)C(C)C)C3)cn12` [Example 368-2, (3R)-4-[5-fluoro-2-(1-fluoro-3-methyl-6-{1-[(2S)-3-methyl-1-(4-methylpiperazin-1-yl)butan-2-yl]azacyclobutan-3-yl}imidazo[1,5-a]pyridin-8-yl)benzoyl]-3-methylmorpholine] has a pIC50 [1] of 8.30, a pIC50 [2] of 8.07 and a pIC50 [3] of 4.89. The pEC50 [4] was 8.11, the pEC50 [5] was 8.04 and the pEC50 [6] was 7.77.
`Cc1nc(F)c2c(-c3ccc(F)cc3C(=O)N3CCOC[C@H]3C)cc(C3CN([C@H](CCCN4C[C@H]5C[C@@H]4CO5)C(C)C)C3)cn12` [Example 353, (1R,4R)-5-[(4R)-4-[3-(1-fluoro-8-{4-fluoro-2-[(3R)-3-methylmorpholin-4-carbonyl]phenyl}-3-methylimidazo[1,5-a]pyridin-6-yl)azacyclobutan-1-yl]-5-methylhexyl]-2-oxa-5-azabicyclo[2.2.1]heptane] was tested, and the pIC50 [1] was 8.39, the pIC50 [2] was 8.27 and the pIC50 [3] was under 4.70. The pEC50 [4] was 8.13, the pEC50 [5] was 8.62 and the pEC50 [6] was 7.68.
With `COCCN(C)CCC[C@H](C(C)C)N1CC(c2cc(-c3ccc(F)cc3C(=O)N3CCOC[C@H]3C)c3c(F)nc(C)n3c2)C1` [Example 200-1] the pIC50 [1] was 8.49, the pIC50 [2] was 7.99 and the pIC50 [3] was 4.70. The pEC50 [4] was 7.92, the pEC50 [5] was 9.00 and the pEC50 [6] was 7.89.
`CCN(C(=O)c1cc(F)ccc1-c1cc(C2CN([C@H](CCCN3CCN(CCO)CC3)C(C)C)C2)cn2c(C)ncc12)C(C)C` [Example 398, N-ethyl-5-fluoro-2-(6-{1-[(3R)-6-[4-(2-hydroxyethyl)piperazin-1-yl]-2-methylhexan-3-yl]azacyclobutan-3-yl}-3-methylimidazo[1,5-a]pyridin-8-yl)-N-(isopropyl)benzamide] showed a pIC50 [1] of 8.96, a pIC50 [2] of 8.37 and a pIC50 [3] of under 4.70. It also gave a pEC50 [4] of 8.72, a pEC50 [5] of 8.59 and a pEC50 [6] of 7.89.
`COC1CCN(CCCC(C(C)C)N2CC(c3cc(-c4ccc(F)cc4C(=O)N4CCOCC4C)c4c(F)nc(C)n4c3)C2)C1` (stereo not drawn) [Example 201-1] was tested, and the pIC50 [1] was 8.62, the pIC50 [2] was 8.29 and the pIC50 [3] was 4.70. It also gave a pEC50 [4] of 8.47, a pEC50 [5] of 9.00 and a pEC50 [6] of 8.62.
